{"source": "paper PMC10745491", "about": "(Frontiers in Cellular Neuroscience, 2023)", "key": {"D2S": {"target": "D2S (Homo sapiens, UniProt P14416)", "sequence (P14416 other isoform, or with tags, fused parts or gaps)": "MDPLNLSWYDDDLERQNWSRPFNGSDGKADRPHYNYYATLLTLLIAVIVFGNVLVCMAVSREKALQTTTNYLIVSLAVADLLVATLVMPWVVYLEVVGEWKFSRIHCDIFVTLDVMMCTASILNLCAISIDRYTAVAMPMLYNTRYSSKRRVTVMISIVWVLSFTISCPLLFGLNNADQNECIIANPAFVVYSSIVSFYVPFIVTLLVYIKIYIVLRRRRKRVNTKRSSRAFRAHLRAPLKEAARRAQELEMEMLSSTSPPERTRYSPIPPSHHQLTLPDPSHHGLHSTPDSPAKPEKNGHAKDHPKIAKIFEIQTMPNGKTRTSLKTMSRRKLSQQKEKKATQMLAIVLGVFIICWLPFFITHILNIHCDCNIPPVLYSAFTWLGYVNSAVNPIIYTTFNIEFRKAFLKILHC", "type": "binding"}, "M4": {"target": "M4 (Homo sapiens, UniProt P08173)", "sequence (P08173 whole entry)": "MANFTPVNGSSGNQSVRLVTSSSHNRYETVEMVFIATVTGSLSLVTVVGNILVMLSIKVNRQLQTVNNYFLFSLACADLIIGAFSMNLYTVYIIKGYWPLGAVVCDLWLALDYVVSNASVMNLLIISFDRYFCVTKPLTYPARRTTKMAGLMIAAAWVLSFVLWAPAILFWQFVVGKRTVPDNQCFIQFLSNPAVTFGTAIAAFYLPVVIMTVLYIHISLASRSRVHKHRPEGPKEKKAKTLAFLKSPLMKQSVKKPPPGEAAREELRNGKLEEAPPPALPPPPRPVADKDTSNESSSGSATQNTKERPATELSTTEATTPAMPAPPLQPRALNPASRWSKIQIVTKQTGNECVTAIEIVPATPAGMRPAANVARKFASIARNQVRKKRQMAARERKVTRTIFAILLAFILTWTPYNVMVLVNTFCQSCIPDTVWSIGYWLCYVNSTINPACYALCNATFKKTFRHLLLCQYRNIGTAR", "type": "binding"}, "5-HT2A": {"target": "5-HT2A (Homo sapiens, UniProt P28223)", "assay": "radioligand binding assay"}, "sst4": {"target": "sst4 (Homo sapiens, UniProt P31391)", "sequence (P31391 whole entry)": "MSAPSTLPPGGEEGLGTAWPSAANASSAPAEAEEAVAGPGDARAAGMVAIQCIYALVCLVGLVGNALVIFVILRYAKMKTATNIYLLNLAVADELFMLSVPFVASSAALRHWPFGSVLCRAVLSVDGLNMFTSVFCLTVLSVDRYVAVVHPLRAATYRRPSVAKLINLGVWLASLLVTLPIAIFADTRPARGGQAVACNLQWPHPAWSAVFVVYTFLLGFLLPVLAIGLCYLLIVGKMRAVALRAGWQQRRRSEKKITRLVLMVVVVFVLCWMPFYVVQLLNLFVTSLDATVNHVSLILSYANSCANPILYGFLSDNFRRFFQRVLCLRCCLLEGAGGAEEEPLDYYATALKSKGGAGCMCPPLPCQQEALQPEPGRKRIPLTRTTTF", "type": "binding"}, "PDE5": {"target": "PDE5 (Homo sapiens, UniProt O76074)", "type": "biochemical"}, "MAO-A": {"target": "MAO-A (Homo sapiens, UniProt P21397)", "sequence (P21397 whole entry)": "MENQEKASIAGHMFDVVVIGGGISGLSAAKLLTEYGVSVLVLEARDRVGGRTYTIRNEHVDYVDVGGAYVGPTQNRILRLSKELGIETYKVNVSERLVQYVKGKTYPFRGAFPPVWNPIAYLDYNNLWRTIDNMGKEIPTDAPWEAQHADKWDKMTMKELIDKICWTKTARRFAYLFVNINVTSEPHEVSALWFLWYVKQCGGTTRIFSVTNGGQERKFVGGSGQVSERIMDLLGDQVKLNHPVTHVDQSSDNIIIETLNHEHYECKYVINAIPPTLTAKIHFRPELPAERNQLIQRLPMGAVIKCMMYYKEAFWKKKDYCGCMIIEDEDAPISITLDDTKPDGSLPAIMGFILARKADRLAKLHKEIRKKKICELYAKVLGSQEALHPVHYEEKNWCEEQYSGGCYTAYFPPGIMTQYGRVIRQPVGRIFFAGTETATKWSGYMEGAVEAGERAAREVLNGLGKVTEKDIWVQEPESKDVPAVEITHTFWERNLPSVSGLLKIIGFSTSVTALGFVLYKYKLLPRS", "type": "biochemical"}, "human OXTR [1]": {"target": "T1, human OXTR (Homo sapiens, UniProt P30559)", "T1 sequence (P30559 whole entry)": "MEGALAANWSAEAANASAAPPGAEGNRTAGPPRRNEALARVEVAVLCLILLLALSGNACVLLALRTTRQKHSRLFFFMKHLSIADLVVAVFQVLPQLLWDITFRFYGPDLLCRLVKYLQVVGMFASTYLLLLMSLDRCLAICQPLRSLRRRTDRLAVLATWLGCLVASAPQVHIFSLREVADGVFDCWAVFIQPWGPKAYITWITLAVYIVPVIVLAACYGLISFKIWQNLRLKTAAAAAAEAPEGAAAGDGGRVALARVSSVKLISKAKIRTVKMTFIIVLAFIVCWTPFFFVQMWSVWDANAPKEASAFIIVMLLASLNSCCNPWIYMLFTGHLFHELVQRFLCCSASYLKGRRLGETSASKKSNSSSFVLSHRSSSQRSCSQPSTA"}, "brain OXTR": {"test_system": "brain OXTR", "conditions": "in vivo"}, "D1": {"target": "D1 (Homo sapiens, UniProt P21728)"}, "H2": {"target": "H2 (Homo sapiens, UniProt P25021)", "sequence (P25021 whole entry)": "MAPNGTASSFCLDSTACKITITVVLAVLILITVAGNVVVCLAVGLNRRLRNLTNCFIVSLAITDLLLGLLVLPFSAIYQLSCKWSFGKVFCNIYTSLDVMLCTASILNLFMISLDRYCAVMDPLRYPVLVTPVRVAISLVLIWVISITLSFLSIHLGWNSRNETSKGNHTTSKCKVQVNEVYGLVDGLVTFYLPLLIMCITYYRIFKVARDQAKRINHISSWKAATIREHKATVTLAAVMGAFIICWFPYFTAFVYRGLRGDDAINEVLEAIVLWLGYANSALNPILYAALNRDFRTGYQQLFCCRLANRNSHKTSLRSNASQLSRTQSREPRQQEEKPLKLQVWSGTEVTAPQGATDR"}, "H3": {"target": "H3 (Homo sapiens, UniProt Q9Y5N1)", "sequence (Q9Y5N1 whole entry)": "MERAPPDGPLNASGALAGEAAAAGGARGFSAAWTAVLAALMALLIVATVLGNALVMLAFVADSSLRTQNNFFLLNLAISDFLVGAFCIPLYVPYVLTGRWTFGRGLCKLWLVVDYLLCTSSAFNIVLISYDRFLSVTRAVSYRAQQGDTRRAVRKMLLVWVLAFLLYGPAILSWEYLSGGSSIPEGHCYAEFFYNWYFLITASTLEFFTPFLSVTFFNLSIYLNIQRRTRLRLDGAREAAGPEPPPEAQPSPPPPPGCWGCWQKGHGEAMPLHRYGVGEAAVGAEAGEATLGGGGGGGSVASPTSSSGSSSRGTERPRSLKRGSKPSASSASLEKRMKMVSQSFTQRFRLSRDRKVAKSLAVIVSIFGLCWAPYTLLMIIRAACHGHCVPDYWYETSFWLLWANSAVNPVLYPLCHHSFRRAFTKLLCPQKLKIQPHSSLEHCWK"}, "kappa": {"target": "kappa (Homo sapiens, UniProt P41145)", "sequence (P41145 whole entry)": "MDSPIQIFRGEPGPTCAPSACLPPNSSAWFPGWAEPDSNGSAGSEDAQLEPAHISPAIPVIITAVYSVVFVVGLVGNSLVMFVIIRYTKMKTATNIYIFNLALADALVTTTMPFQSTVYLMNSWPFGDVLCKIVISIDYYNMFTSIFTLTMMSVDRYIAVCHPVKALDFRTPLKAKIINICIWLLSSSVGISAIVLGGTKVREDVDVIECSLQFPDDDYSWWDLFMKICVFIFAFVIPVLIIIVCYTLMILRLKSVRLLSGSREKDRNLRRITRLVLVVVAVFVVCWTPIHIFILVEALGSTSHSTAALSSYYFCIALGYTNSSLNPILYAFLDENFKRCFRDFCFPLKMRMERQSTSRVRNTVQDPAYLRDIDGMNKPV"}, "5-HT1A": {"target": "5-HT1A (Homo sapiens, UniProt P08908)", "sequence (P08908 whole entry)": "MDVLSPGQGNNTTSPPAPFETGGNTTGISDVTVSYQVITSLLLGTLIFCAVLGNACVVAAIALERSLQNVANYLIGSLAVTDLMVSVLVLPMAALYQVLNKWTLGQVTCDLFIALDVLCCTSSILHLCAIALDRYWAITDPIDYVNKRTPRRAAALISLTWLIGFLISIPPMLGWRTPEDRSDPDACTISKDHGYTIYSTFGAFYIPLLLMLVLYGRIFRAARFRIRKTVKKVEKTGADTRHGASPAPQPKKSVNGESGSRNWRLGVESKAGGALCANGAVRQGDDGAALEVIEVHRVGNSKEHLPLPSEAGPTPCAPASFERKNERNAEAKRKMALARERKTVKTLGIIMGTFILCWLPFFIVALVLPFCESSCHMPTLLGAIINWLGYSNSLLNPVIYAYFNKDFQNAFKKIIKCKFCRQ"}, "5-HT transporter": {"target": "5-HT transporter (Homo sapiens, UniProt P31645)", "sequence (P31645 whole entry)": "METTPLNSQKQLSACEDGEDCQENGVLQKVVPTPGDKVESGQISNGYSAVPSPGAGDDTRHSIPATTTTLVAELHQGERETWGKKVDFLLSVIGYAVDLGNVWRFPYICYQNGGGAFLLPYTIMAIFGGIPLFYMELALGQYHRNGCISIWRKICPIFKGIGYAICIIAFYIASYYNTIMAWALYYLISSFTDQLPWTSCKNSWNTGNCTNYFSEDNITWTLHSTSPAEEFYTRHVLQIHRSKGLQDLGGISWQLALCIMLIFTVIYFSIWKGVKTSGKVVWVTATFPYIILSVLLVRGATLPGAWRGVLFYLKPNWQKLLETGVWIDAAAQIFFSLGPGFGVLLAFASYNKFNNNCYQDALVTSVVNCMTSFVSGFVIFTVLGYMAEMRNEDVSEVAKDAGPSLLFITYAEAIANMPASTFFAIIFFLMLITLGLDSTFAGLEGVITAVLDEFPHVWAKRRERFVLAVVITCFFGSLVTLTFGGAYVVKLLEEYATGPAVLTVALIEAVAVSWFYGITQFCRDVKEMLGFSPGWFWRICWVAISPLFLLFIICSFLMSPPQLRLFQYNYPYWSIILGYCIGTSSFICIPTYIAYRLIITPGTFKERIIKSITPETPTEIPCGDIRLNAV"}, "HIV-1 protease": {"target": "HIV-1 protease (Human immunodeficiency virus type 1 group M subtype B, UniProt P04585)"}, "CDK2": {"target": "CDK2 (Homo sapiens, UniProt P24941)"}, "MAO-B enzyme": {"target": "MAO-B enzyme (Homo sapiens, UniProt P27338)", "sequence (P27338 whole entry)": "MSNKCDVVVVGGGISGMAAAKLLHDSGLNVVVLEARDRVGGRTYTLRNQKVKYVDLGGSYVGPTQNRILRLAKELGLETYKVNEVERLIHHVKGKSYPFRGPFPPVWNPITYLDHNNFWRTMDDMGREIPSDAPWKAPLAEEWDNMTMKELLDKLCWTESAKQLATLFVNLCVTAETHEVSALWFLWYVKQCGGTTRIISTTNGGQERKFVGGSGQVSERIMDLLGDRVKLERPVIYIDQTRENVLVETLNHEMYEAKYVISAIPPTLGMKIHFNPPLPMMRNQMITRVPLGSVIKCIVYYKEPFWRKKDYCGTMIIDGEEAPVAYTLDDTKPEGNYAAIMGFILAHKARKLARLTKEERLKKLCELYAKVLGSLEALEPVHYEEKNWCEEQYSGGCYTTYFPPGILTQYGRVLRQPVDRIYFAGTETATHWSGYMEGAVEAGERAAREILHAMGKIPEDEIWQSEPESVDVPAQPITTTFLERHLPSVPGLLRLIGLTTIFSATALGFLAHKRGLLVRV"}, "rat OXTR": {"target": "rat OXTR (Rattus norvegicus, UniProt P70536)", "assay": "cell-based"}, "human OXTR [2]": {"target": "T1, human OXTR", "assay": "cell-based"}, "human V1aR": {"target": "human V1aR (Homo sapiens, UniProt P37288)", "assay": "cell-based"}}, "note": "Where two headings read alike, the source gives them in different places. Peptide text beside a SMILES is read from it."}
{"smiles": "CC[C@H](C)[C@@H]1NC(=O)[C@H](Cc2ccc(O)cc2)NC(=O)CNC(=O)CC[C@@H](C(=O)N2CC(F)C[C@H]2C(=O)N[C@@H](CC(C)C)C(=O)NCC(N)=O)NC(=O)[C@H](CC(N)=O)NC(=O)[C@H](CCC(N)=O)NC1=O", "note": "(some centres unmarked) [RO6958375] (HELM PEPTIDE1{G.Y.I.Q.N.E.[O=C([C@@H]1CC(F)CN1[*:1])[*:2]].L.G.[am]}$PEPTIDE1,PEPTIDE1,1:R1-6:R3$$$V2.0)", "values": [{"measurement": "% Inhibition of Control Specific Binding", "setting": "D2S", "result": 6, "unit": "%"}, {"measurement": "Mean / % of Control Specific Binding", "setting": "D2S", "result": 93.7, "unit": "%"}, {"measurement": "% Inhibition of Control Specific Binding", "setting": "M4", "result": -17, "unit": "%"}, {"measurement": "Mean / % of Control Specific Binding", "setting": "M4", "result": 116.9, "unit": "%"}, {"measurement": "% Inhibition of Control Specific Binding", "setting": "5-HT2A", "result": 9, "unit": "%"}, {"measurement": "Mean / % of Control Specific Binding", "setting": "5-HT2A", "result": 90.6, "unit": "%"}, {"measurement": "% Inhibition of Control Specific Binding", "setting": "sst4", "result": 17, "unit": "%"}, {"measurement": "Mean / % of Control Specific Binding", "setting": "sst4", "result": 82.8, "unit": "%"}, {"measurement": "% Inhibition of Control Specific Binding", "setting": "PDE5", "result": -21, "unit": "%"}, {"measurement": "Mean / % of Control Specific Binding", "setting": "PDE5", "result": 121.4, "unit": "%"}, {"measurement": "% Inhibition of Control Specific Binding", "setting": "MAO-A", "result": -15, "unit": "%"}, {"measurement": "Mean / % of Control Specific Binding", "setting": "MAO-A", "result": 115, "unit": "%"}, {"measurement": "activation of human OXTR", "setting": "human OXTR [1]", "result": "fully activated"}, {"measurement": "time of full activation of rat OXTR post-dose", "setting": "brain OXTR; sc", "result": 4.3, "unit": "h"}, {"measurement": "CSF concentration relative to in vitro OXTR EC50", "setting": "brain OXTR; rat", "result": "more than 10 fold"}, {"measurement": "brain OXTR activation", "setting": "brain OXTR; rat", "result": 0, "unit": "%"}, {"measurement": "brain OXTR activation", "setting": "brain OXTR; rat, sc, 0.001 mg/kg", "result": 10, "unit": "%"}, {"measurement": "brain OXTR activation", "setting": "brain OXTR; rat, sc, 0.07 mg/kg", "result": 72, "unit": "%"}, {"measurement": "% Inhibition of Control Specific Binding", "setting": "D1", "result": -2, "unit": "%"}, {"measurement": "Mean / % of Control Specific Binding", "setting": "D1", "result": 102.2, "unit": "%"}, {"measurement": "% Inhibition of Control Specific Binding", "setting": "glycine", "result": 15, "unit": "%"}, {"measurement": "Mean / % of Control Specific Binding", "setting": "glycine", "result": 84.6, "unit": "%"}, {"measurement": "% Inhibition of Control Specific Binding", "setting": "H2", "result": 18, "unit": "%"}, {"measurement": "Mean / % of Control Specific Binding", "setting": "H2", "result": 81.9, "unit": "%"}, {"measurement": "% Inhibition of Control Specific Binding", "setting": "H3", "result": -6, "unit": "%"}, {"measurement": "Mean / % of Control Specific Binding", "setting": "H3", "result": 105.9, "unit": "%"}, {"measurement": "% Inhibition of Control Specific Binding", "setting": "kappa", "result": -13, "unit": "%"}, {"measurement": "Mean / % of Control Specific Binding", "setting": "kappa", "result": 112.7, "unit": "%"}, {"measurement": "% Inhibition of Control Specific Binding", "setting": "5-HT1A", "result": 16, "unit": "%"}, {"measurement": "Mean / % of Control Specific Binding", "setting": "5-HT1A", "result": 84.4, "unit": "%"}, {"measurement": "% Inhibition of Control Specific Binding", "setting": "5-HT transporter", "result": -4, "unit": "%"}, {"measurement": "Mean / % of Control Specific Binding", "setting": "5-HT transporter", "result": 103.5, "unit": "%"}, {"measurement": "% Inhibition of Control Specific Binding", "setting": "HIV-1 protease", "result": 5, "unit": "%"}, {"measurement": "Mean / % of Control Specific Binding", "setting": "HIV-1 protease", "result": 95.3, "unit": "%"}, {"measurement": "% Inhibition of Control Specific Binding", "setting": "CDK2", "result": 13, "unit": "%"}, {"measurement": "Mean / % of Control Specific Binding", "setting": "CDK2", "result": 87.1, "unit": "%"}, {"measurement": "% Inhibition of Control Specific Binding", "setting": "MAO-B enzyme", "result": -14, "unit": "%"}, {"measurement": "Mean / % of Control Specific Binding", "setting": "MAO-B enzyme", "result": 113.8, "unit": "%"}, {"measurement": "EC50", "setting": "rat OXTR", "result": 0.011, "unit": "nM"}, {"measurement": "EC50", "setting": "human OXTR [2]", "result": 0.025, "unit": "nM"}, {"measurement": "EC50", "setting": "human V1aR", "result": "> 27000", "unit": "nM"}]}
